Measurements published in PMC9127186, “Molecular Basis Underlying Hepatobiliary and Renal Excretion of Phenolic Acids of Salvia miltiorrhiza Roots (Danshen)” (Frontiers in Pharmacology, 2022).

How the values were obtained:
human OATP2B1 = biological target: T1, human OATP2B1 (Homo sapiens, UniProt O94956); settings: 10 min, 100 μM
T1 sequence (O94956 1-709): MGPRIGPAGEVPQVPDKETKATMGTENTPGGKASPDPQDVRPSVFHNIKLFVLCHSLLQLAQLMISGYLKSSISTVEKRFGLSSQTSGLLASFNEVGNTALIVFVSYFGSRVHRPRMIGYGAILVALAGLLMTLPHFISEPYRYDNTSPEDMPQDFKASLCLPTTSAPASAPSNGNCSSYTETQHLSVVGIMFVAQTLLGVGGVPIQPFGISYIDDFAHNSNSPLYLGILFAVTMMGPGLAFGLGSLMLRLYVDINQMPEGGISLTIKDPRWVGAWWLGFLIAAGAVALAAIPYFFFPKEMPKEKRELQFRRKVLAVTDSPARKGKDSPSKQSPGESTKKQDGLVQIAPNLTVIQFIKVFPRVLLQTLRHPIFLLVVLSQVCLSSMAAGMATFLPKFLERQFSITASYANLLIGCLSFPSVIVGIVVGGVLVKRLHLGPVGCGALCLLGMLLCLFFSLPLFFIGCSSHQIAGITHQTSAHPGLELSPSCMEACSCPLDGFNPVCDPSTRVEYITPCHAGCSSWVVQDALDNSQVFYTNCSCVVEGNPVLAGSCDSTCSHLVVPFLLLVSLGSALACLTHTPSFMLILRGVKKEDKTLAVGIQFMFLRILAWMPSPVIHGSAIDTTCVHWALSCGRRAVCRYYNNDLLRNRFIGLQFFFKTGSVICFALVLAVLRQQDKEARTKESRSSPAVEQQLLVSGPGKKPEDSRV

human NTCP = biological target: T2, human NTCP (Homo sapiens, UniProt Q14973); settings: 10 min, 100 μM
T2 sequence (Q14973 1-349): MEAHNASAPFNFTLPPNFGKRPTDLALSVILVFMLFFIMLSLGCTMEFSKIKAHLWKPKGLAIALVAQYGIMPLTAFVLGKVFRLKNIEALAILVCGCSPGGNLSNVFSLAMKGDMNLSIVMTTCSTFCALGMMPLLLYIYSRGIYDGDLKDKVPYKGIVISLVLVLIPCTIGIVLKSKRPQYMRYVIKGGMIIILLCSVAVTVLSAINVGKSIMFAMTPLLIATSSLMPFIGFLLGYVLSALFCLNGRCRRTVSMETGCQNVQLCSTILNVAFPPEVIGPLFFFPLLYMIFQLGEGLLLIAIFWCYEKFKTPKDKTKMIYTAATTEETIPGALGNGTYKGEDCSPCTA

rat Oatp1a1 = biological target: T3, rat Oatp1a1 (Rattus norvegicus, UniProt P46720); settings: 10 min, 100 μM
T3 sequence (P46720 1-670): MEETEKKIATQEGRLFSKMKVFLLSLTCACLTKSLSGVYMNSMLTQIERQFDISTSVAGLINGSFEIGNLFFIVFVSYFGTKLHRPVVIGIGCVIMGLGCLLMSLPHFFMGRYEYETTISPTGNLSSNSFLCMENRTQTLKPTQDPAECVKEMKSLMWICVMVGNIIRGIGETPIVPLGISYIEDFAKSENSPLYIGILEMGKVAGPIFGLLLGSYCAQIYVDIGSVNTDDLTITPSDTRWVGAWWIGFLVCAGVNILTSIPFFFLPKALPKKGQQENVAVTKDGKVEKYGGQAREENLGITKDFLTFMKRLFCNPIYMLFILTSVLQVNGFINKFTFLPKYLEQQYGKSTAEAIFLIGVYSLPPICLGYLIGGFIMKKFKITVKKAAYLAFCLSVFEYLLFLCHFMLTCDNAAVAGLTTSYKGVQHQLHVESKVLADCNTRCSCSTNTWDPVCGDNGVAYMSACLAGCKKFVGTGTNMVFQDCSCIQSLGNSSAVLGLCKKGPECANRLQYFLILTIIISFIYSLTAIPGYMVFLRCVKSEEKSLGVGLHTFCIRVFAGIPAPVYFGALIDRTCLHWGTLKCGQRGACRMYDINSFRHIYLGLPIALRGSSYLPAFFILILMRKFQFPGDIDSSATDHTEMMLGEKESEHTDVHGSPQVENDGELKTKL

human OCT3 = biological target: T4, human OCT3 (Homo sapiens, UniProt O75751)
T4 sequence (O75751 1-556): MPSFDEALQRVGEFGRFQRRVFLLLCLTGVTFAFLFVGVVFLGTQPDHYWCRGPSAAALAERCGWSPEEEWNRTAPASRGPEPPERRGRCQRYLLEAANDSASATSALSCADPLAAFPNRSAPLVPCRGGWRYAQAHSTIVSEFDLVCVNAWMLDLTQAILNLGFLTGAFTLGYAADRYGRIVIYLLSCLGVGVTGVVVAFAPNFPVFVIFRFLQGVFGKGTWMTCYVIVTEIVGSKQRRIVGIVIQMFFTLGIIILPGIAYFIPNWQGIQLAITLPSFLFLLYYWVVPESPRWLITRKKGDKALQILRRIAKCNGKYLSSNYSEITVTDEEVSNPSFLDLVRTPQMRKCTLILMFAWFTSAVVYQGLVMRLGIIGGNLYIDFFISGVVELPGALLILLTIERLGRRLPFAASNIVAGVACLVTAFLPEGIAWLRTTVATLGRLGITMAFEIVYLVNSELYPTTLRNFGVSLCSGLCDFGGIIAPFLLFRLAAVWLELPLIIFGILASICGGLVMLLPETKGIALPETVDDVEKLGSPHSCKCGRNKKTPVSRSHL

rat Oct3 = biological target: T5, rat Oct3 (Rattus norvegicus, UniProt O88446)
T5 sequence (O88446 1-551): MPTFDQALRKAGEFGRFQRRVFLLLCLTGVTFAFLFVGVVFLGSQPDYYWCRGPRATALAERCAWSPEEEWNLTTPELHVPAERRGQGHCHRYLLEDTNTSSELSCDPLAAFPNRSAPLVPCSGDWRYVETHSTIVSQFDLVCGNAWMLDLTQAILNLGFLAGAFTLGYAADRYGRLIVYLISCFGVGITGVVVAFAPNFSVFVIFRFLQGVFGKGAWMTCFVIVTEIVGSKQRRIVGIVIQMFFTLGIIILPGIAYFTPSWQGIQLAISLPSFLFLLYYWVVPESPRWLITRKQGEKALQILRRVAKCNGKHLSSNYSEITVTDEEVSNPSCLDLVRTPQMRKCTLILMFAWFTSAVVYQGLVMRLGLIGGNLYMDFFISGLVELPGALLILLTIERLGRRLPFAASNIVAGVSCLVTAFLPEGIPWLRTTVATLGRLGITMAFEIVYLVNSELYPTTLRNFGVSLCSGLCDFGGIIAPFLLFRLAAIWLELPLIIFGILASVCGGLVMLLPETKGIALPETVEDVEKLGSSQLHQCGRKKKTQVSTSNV

OATP1B1 = system: OATP1B1; parameters: method as in Li et al., 2019; settings: ref Li et al., 2019; read-out: half maximum inhibitory concentration (IC50) for OATP1B1; cited from earlier work

Compound	TransportTC/TransportMC ratio (net transport ratio) (human OATP2B1)	TransportTC/TransportMC ratio (net transport ratio) (human NTCP)	TransportTC/TransportMC ratio (net transport ratio) (rat Oatp1a1)	TransportTC/TransportMC ratio (net transport ratio) (human OCT3)	TransportTC/TransportMC ratio (net transport ratio) (rat Oct3)	IC50 (OATP1B1) [µM]
O=C(/C=C/c1ccc(O)c(O)c1)O[C@H](Cc1ccc(O)c(O)c1)C(=O)O [Rosmarinic acid, rosmarinic acid]	1.69 ± 0.71	2.76 ± 0.36	1.45 ± 0.57	–	–	–
O=C(/C=C/c1ccc(O)c(O)c1/C=C/c1ccc(O)c(O)c1)O[C@H](Cc1ccc(O)c(O)c1)C(=O)O [Salvianolic acid A, salvianolic acid A]	2.45 ± 0.34	0.93 ± 0.11	2.24 ± 0.67	1.31 ± 0.09	1.19 ± 0.14	–
salvianolic acid B	–	–	–	–	–	38
